One compound from publication PMC10465592, “Reduced ADP off-rate by the yeast CCT2 double mutation T394P/R510H which causes Leber congenital amaurosis in humans” (Communications Biology, 2023) can be followed below.

Assay [1] concerns the target T1, CCT/TRiC (Saccharomyces cerevisiae).
T1 construct: gene CCT2; native complex from yeast cells, two back-to-back rings each of eight distinct subunits CCT1-CCT8; CCT2 mutations introduced in the chromosomal gene
The assay is described as follows: stopped-flow transient kinetics of phosphate release (labelled phosphate-binding protein), burst-phase rates fit to simple binding. The class given is biochemical. The settings on record: 25 °C, pH 7.5 Tris-HCl, 10 mM MgCl2, 50 mM KCl, 20% glycerol, 1 mM DTT; both burst phases similar; read-out: ATP affinity (Kd). The source says: stopped-flow transient kinetics of phosphate release (labelled phosphate-binding protein), burst-phase rates fit to simple binding on CCT/TRiC (Saccharomyces cerevisiae) | the ATP affinities corresponding to the two burst phases are similar and found to be

The target is the same in assay [2]. The assay can be described thus: stopped-flow transient kinetics of phosphate release (labelled phosphate-binding protein), burst-phase rates fit to conformational selection. The class given is biochemical. As to conditions: 25 °C, pH 7.5 Tris-HCl, 10 mM MgCl2, 50 mM KCl, 20% glycerol, 1 mM DTT; stronger of two burst phases; read-out: ATP affinity (Kd).

For orientation: Kd means the constant that tells how readily two partners part at equilibrium. As to `Nc1ncnc2c1ncn2[C@@H]1O[C@H](COP(=O)(O)OP(=O)(O)OP(=O)(O)O)[C@@H](O)[C@H]1O` [ATP], the results for the Kd in assay [1] and in assay [2] were approximately 7 µM and approximately 27 µM, respectively.
